From BindingDB's records for doi:10.1021/jm00142a005 (1982)
pIC50: −log10 of the molar value. Counter-ions that a name gives are not always drawn.

biological target: Thromboxane-A synthase (Oryctolagus cuniculus); test: Inhibitory activity against rabbit thromboxane synthetase

SMILES	pIC50
O=C(O)C1(CCCCCCn2ccnc2)CCCCC1 [1-(6-Imidazol-1-yl-hexyl)-cyclohexanecarboxylic acid; hydrochloride]	7.34
CC(C)(CCCCn1ccnc1)CCC(=O)O [8-Imidazol-1-yl-4,4-dimethyl-octanoic acid; hydrochloride]	7.15
CC(CCCCCCn1ccnc1)C(=O)O (stereo not drawn) [8-Imidazol-1-yl-2-methyl-octanoic acid; hydrochloride]	7.52
O=C(O)C(CCCCCCn1ccnc1)c1ccccc1 (stereo not drawn) [8-Imidazol-1-yl-2-phenyl-octanoic acid; hydrochloride]	7.42

More lines, now with the values ahead:

pIC50	SMILES
7.15	O=C(O)/C=C/CCCCCn1ccnc1 [8-Imidazol-1-yl-oct-2-enoic acid; hydrochloride]
7.25	O=C(O)CCCC/C=C\Cn1ccnc1 [8-Imidazol-1-yl-oct-6-enoic acid; hydrochloride]
7.80	O=C(O)/C=C\CCCCCn1ccnc1 [8-Imidazol-1-yl-oct-2-enoic acid]
7.05	CC(C)(CCCCCCC(=O)O)n1ccnc1 [8-Imidazol-1-yl-8-methyl-nonanoic acid; hydrochloride]
